Article PMC2672171, “In Vivo Delta Opioid Receptor Internalization Controls Behavioral Effects of Agonists” (PLoS ONE, 2009)

Tests used:
[1] = molecular target: T1, DOR-eGFP (delta opioid receptor-eGFP) (Mus musculus, UniProt P32300); assay: […]GTPgammaS binding, whole brain membranes; assay type: biochemical; details: agonist; 30 µM GDP, 0.1 nM [35S]GTPgammaS, 3 mM MgCl2, 100 mM NaCl, pH 7.4, 1 h, 25 °C; read-out: G protein coupling ([^35S]GTPγS binding) / EC50 (nM) / Striatum / E1/2 (min)
T1 construct: gene Oprd1; Full-length mouse delta receptor with C-terminal eGFP, knocked in at the native gene (exon 3, 5' of the stop codon); whole brain membranes of knock-in mice

[2] = molecular target: T1, DOR-eGFP (delta opioid receptor-eGFP); assay: [3H]naltrindole competition binding, whole brain membranes; details: 1 nM [3H]naltrindole, 1 h, 25 °C; read-out: Affinity (Competition Binding) / Ki (nM) / Concentration
Source text: [3H]naltrindole competition binding, whole brain membranes on DOR-eGFP (delta opioid receptor-eGFP)

T1 sequence (P32300 whole entry): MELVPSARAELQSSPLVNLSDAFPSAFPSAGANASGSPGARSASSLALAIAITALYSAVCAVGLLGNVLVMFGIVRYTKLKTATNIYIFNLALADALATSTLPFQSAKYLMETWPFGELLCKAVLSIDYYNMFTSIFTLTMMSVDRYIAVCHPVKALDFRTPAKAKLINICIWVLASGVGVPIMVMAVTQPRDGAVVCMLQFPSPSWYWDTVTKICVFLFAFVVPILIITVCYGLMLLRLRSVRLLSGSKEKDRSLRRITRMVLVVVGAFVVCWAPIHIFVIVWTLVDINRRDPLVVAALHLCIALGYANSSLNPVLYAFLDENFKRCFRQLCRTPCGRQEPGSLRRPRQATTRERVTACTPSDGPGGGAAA

CCN(CC)C(=O)c1ccc(C(=C2CCNCC2)c2ccccc2)cc1 [ARM390, N,N-diethyl-4-(phenyl-piperidin-4-ylidenemethyl)-benzamide]
EC50 [1]: 169 ± 9.5 nM | Ki [2]: 2.3 ± 0.3 nM
